Data as given in US11214624B2, “Method to prevent cancer metastasis and inhibit inflammation by inhibition of p68 interaction with calmodulin” (Proda Biotech LLC, priority 2012, dated 2022).
Entries after “also recorded” stand apart in the source; their conditions may differ. No end group written: not given here. TAT = TAT cell-permeable sequence

Legend:
SW620 xenograft [1] = assay: Metastasis inhibition of SW620 xenograft (human CK-18 RT-PCR of spleen extracts); assay type: in vivo, nude mice; conditions: for Effect on SW620 metastasis: peptide 2 mg/kg i.p. daily for two weeks
Experimental: (§1) Metastasis inhibition of SW620 xenograft and orthotopic 4T1 tumors: All animal experiments were carried out in accordance with the guidelines of IACUC of Georgia State University. Nude mice or Balb/c mice (6 to 7 weeks old, Harlan Laboratory) were subcutaneously or orthotopically injected with 5×10^6 SW620 or 2×10^6 4T1 cells. Peptides at appropriate doses were administered to the tumor bearing mice by intraperitoneal (i.p.) injection at appropriate time intervals. Tumor formation and volumes were assessed every 2 days. Tumor volumes were measured by two perpendicular diameters of the tumors over a 4-week time course with the formula 4p/3×(width/2)^2×(length/2). The tumors and organs were collected and weighed at the end of the experiments. Tissue sections were prepared from harvested tumors and organs. Tissue sections were analyzed by either H&E or immune staining. For metastasis analyses of SW620 tumors, tissue extracts were prepared from spleens, total RNAs were extracted from the tissue extracts. RT-PCRs were performed with the isolated RNAs. For metastasis of 4T-1 cells, lung and liver were inspected.
The peptides were used to treat a nude mice xenograft of SW620 cells at dose of 2 mg/kg (i.p. daily dose for two weeks). SW620 cells were used because they contain high p68 Y593 phosphorylation (Carter, C L, et al. Oncogene 29:5427-5436 (2010); Yang, L, et al. Mol Cancer Res 3:355-363 (2005)). It is well established that the xenograft of SW620 will metastasize to lymph nodes, and the metastasis can be analyzed by examination of SW620 cells in the spleen (Liu, K, et al. J Immunol 171:4164-4174 (2003)).

E-cadherin and vimentin = assay: PDGF stimulated EMT, cellular levels of EMT markers; assay type: cell-based
From the text: We also examined whether the peptides would abolish PDGF stimulated EMT by analyzing the cellular levels of EMT markers, E-cadherin and vimentin. […] The effect of the PepIQ peptide on cancer metastasis was confirmed by an additional treatment using the PepIQ and a control peptide with a scrambled sequence (PepScram) (FIG. 6, Table 2, Table 4).

SW480 cells = assay: Boyden chamber cell migration assay, SW480; assay type: cell-based
Experimental: (§2) Boyden chamber assay: QCM™ 24-Well Fluorimetric Cell Migration Assay kit was used to measure the migration of SW480 cells. The test cells were first treated under the different conditions in regular cell culture plates. The treated cells were re-suspended into optimum medium (without serum) and seeded into the inner chamber of the migration assay kit. The L-15 culture medium with 10% FBS was added to the outer chambers. After overnight incubation, medium in the inner chamber was removed and the cells attached to the outer bottom side were detached using the cell detachment buffer (included in the kit). The detached cells were then lysed using the cell lysis buffer (included in the kit). The amounts of the migrated cells were determined by measuring the fluorescence using λex=485 nm and λem=535 nm. The migration of the control cells with p68 knockdown was defined as 1.

p68 and CaM interaction = target: T1, p68 and CaM interaction (Homo sapiens, UniProt P0DP23); assay: CaM beads pull-down of p68; assay type: binding; conditions: no migration stimuli
T1 construct: purchased Abcam; host or cells: p68 comes from SW480 whole cell lysate (endogenous)
Experimental: CaM beads pull-down assay was used to determine whether the PepIQ peptide affected the p68 and CaM interaction. […] Thus, the p68-CaM interaction was examined under migration stimuli by co-immunoprecipitation with extracts of SW480 cells using an antibody against CaM. […] Similarly, there was a strong increase in the p68 and CaM co-precipitation upon the EGF treatment. Calmodulin beads pull-down: Whole cell lysate from SW480 cells was prepared as previously described (Yang L, et al. Cell 127:139-155 (2006); Yang L, et al. Mol Cancer Res 3:355-363 (2005)). The agarose beads conjugated with recombinant calmodulin (Abcam) were pre-washed with Ca2+ containing buffer (2 mM CaCl2, 50 mM NaCl in 50 mM Tris-HCl pH 7.5) or EGTA containing buffer (5 mM EGTA, 50 NaCl in 50 mM Tris-HCl pH 7.5). After washing, the beads were incubated with the whole cell lysates in the Ca^2+ containing or EGTA containing buffer. The beads were extensively washed after incubation. Finally, 2× SDS-loading buffer were added to the beads and the beads were heated to 85° C. for 10 minutes. The proteins that were pulled down by the CaM beads were analyzed by 10% SDS PAGE and subsequent immunoblot.

IQGAP1-CaM interaction = target: T2, IQGAP1-CaM interaction (Homo sapiens, UniProt P0DP23); assay: IQGAP1-CaM co-immunoprecipitation in SW480 cell extracts; assay type: cell-based; conditions: SW480 cells with/without multiple scratch-wound
T2 construct: endogenous in cells; host or cells: SW480
Experimental: (§3) To test whether the PepIQ peptide disrupted the interaction of IQGAP1 or Myosin-II with CaM, cell extracts of SW480 cells that were treated by the PepIQ with/without multiple scratch-wound were co-immunoprecipitated using the antibody against CaM. […] The results also excluded a possibility that the PepIQ sequestered all CaM in the cells therefore inhibited cell migration. Thus, these experiments supported the notion that cell migration strengthened the p68-CaM interaction, and the IQ peptide disrupted the p68-CaM interaction induced by migration, thereby inhibiting cell migration.

[2] = target: T3, Myosin-II-CaM interaction (Homo sapiens, UniProt P0DP23); assay: Myosin-CaM co-immunoprecipitation in SW480 cell extracts; assay type: cell-based; conditions: SW480 cells with/without multiple scratch-wound
T3 construct: endogenous in cells; host or cells: SW480
Experimental: as §3

[3] = test system: Mouse breast cancer 4T1 cells; assay: Orthotopic 4T1 tumor metastasis model; assay type: in vivo, Balb/c mouse
Experimental: as §1
The PepIQ was very effective in inhibiting cancer metastasis with xenograft model of SW620 cells, indicating a potential application for metastasis intervention using the peptide or its derivatives. Thus, the effects of the peptide on metastasis in another cancer model was tested. Mouse breast cancer 4T1 cells were implanted into mammary gland of Balb/c mouse. Four days post-tumor implantation, the mice were treated by the PepIQ, the control peptide (PepScram), and buffer by 2 mg/kg daily dose for 14 days via i.p. injection. The mice were sacrificed at 26 days after tumor implantation. The primary tumors and major metastasis organs, lungs and liver, were collected and examined. […] The numbers of visible metastatic nodules in lung in the PepIQ treated group were much less and the nodules were much smaller than those in the PepScram and buffer treated groups (FIGS. 5B-5D). […] To test whether the PepIQ also affected the cell migration of 4T1 cells, cell migration assays were conducted.

4T1 cells = assay: 4T1 cell migration (Boyden chamber and scratch-wound assays); assay type: cell-based, mouse
Experimental: as §2, with “Scratch-wound treatments: A scratch or multiple scratches using pipette tips were introduced into a 6 well cell culture plate. The cells were further cultured under serum starvation for 30 minutes, and were subsequently cultured for an additional indicated time. The scratch-treated cells were either directly visualized by microscopes or the cells were fixed and subsequently examined by immunostaining. Alternatively, the cells were collected and lysized. The prepared cellular extracts were then used for other analyses. Boyden” for “Boyden”, “1. […]” for “1.”

p68-CaM interaction = target: T4, p68-CaM interaction (Homo sapiens, UniProt P0DP23); assay: p68-CaM co-immunoprecipitation in scratch-wound treated SW480 cells; assay type: cell-based; conditions: co-immunoprecipitation with antibody against CaM
T4 construct: co-immunoprecipitation with extracts of SW480 cells using an antibody against CaM; endogenous in cells; host or cells: SW480
Experimental: Scratch-wound treatments: A scratch or multiple scratches using pipette tips were introduced into a 6 well cell culture plate. The cells were further cultured under serum starvation for 30 minutes, and were subsequently cultured for an additional indicated time. The scratch-treated cells were either directly visualized by microscopes or the cells were fixed and subsequently examined by immunostaining. Alternatively, the cells were collected and lysized. The prepared cellular extracts were then used for other analyses.
CaM beads pull-down assay was used to determine whether the PepIQ peptide affected the p68 and CaM interaction. […] Thus, the p68-CaM interaction was examined under migration stimuli by co-immunoprecipitation with extracts of SW480 cells using an antibody against CaM. […] Similarly, there was a strong increase in the p68 and CaM co-precipitation upon the EGF treatment.
To test whether the PepIQ abolished the enhancement of the p68-CaM interaction induced by cell migration, the p68-CaM interaction was probed in cell lysate of SW480 cells that were treated by the peptide.

SW620 xenograft [4] = assay: Metastasis inhibition of SW620 xenograft (human CK-18 RT-PCR of spleen extracts); assay type: in vivo, nude mice
[5] = test system: Rhodamine labeled microtubules; assay: Microtubule gliding assay; assay type: biochemical; parameters: % of gliding microtubules (n = 50): dose or concentration left out as unconfirmed; conditions: for % of gliding microtubules (n = 50): only MTs with gliding speed >0.025 μm/min counted; for Mean gliding speed: only MTs with motility >0.05 μM/min
Experimental: The slide was blocked with the blocking buffer. For the slide loaded with HA-p68, 10 μl of calmodulin with 0.5 mM of Ca^2+ was added to the slide and was incubated for 10 minutes. After loading the slide was washed with the Ca^2+ containing wash buffer to remove the unbound proteins. The prepared Rodamine labeled microtubules were then loaded onto the slide. The same Ca^2+ containing wash buffer was used to remove unbound microtubules. The movement of microtubules was then recorded by the confocal microscope.
HA-p68 was purified from SW480 cells with/without scratch-wound treatment and attached to a glass slide. Rhodamine-labeled microtubule was then added to the glass slide. Migration of the microtubule in the presence and absence of ATP was then recorded.

[6] = Table 1, TAT-fused peptides 2 mg/kg i.p. daily for two weeks, mice with metastasis/mice in group
[7] = vs PepScram and buffer treated groups

“PepIQ (FASGQINTFVSRGTPGYATGMHNGMNQQAPYAYPATAAAPFVSAGIQTSFRTGNPTGAYG)” was tested, and the Metastasis rate (SW620 xenograft [1]; [6]) was 1/5, the Metastasis rate (SW620 xenograft [1]; Table 2, additional treatment, PepIQ vs scrambled control peptide) was 2/5 and the “Effect on SW620 metastasis” value (SW620 xenograft [1]) was “largely diminished; also recorded: inhibited the metastasis”. The “Levels of E-cadherin and vimentin” value (E-cadherin and vimentin) was “not significantly affected”, the Cell migration (SW480 cells; SW480 cells treated with peptide) was “almost completely inhibited” and the “Change in p68-CaM interaction” value (p68 and CaM interaction) was “did not lead to dramatic changes”. The IQGAP1-CaM interaction (IQGAP1-CaM interaction) was “not affected”, the Myosin-CaM interaction [2] was “not affected” and the “Cancer metastasis in the lung (mice affected)” value ([3]; 2 mg/kg daily for 14 days i.p.) was 3 out of 4. For the same substance, the “Mice with no micrometastasis lesion in liver tissue sections” value ([3]; 2 mg/kg daily for 14 days i.p.) was “two out of four”, the “Average numbers of micrometastasis lesions in liver” value ([3]; 4 fields from three tissue sections per liver, vs buffer and PepScram groups) was “substantially less” and the “Numbers of visible metastatic nodules in lung” value [3, 7] was “much less”. For the same substance, the “Size of metastatic nodules in lung” value [3, 7] was “much smaller”, the “Size of micrometastasis lesions in liver” value ([3]; vs control groups) was “substantially smaller” and the “Cell migration of 4T1 cells” value (4T1 cells) was “dramatically reduced”.
“PepPhoY593: p68 aa 584-602 peptide with Y593 phosphorylation, MHNGMNQQA[p]YAYPATAAAP (SEQ ID NO:3), TAT-fused at N-terminus” was tested, and the Metastasis rate (SW620 xenograft [1]; [6]) was 3/5, the “Effect on SW620 metastasis” value (SW620 xenograft [1]) was “almost no effects; also recorded: no effects on cancer metastasis” and the “Levels of E-cadherin and vimentin” value (E-cadherin and vimentin) was “decrease in vimentin and an increase in Ecadherin”.
In the case of “PepY593: p68 aa 584-602 peptide MHNGMNQQAYAYPATAAAP (SEQ ID NO:2), without Y593 phosphorylation, TAT-fused at N-terminus; control peptide ({TAT}-MHNGMNQQAYAYPATAAAP)”, the Metastasis rate (SW620 xenograft [1]; [6]) is reported as 5/5 and the “Levels of E-cadherin and vimentin” value (E-cadherin and vimentin) is reported as “not significantly affected”.
“eGFP-IQ: fusion protein containing amino acids 549-568 of p68 fused to the C-terminus of eGFP, expressed in SW620/SW480 cells (FVSAGIQTSFRTGNPTGTYQ; also: fused to C-terminus of eGFP)” was tested, and the Cell migration (SW480 cells; stable expression in SW480 cells) was “dramatically inhibited”, the “Increase in the p68-CaM interaction upon multiple scratch wound” value (p68-CaM interaction) was “not dramatically strengthened” and the Metastasis rate (SW620 xenograft [4]; Table 3, xenograft of SW620 cells expressing the protein) was 2/6. For the same substance, the “Effect on cancer metastasis of the SW620 xenograft” value (SW620 xenograft [4]; protein expressed in SW620 cells) was “greatly reduced”.
“p68/Ca^2+-CaM: HA-p68 immunopurified from scratch-wound treated SW480 cells, in the presence of CaM and Ca2+” was tested, and the Maximum gliding speed ([5]; ATP) was 0.52 ± 0.14 μm/min, the “% of gliding microtubules (n = 50)” value ([5]; ATP) was 74.15 ± 1.20% and the Mean gliding speed ([5]; ATP) was 0.16 ± 0.12 μm/min. For the same substance, the Maximum gliding speed ([5]; no ATP) was 0.01 ± 0.00 μm/min, the “% of gliding microtubules (n = 50)” value ([5]; no ATP) was 5.79 ± 3.13% and the Mean gliding speed ([5]; no ATP) was 0.00 ± 0.00 μm/min.
